Patent publication US10253024B2, “Polycyclic indoline and indolenine compounds” (The Regents of the University of Colorado, a body corporate, priority 2015, dated 2019)
In brackets after ≈: the same amount, converted by molar mass. Where a name gives a salt, the structure may show the parent alone.

Columns and labels:
in vitro = settings: dog, MDCK
Experimental: (§1) To test this, permeability assessments were performed using MDCK cells.

MRSA BAA-44 = experiment: MIC of antibiotics in absence and presence of 11b (broth microdilution); type: cell-based, S. aureus; settings: for Fold of potentiation: MIC alone versus with 10 μM 11b; for MIC: Staphylococcus aureus, antibiotic alone; for MIC (+11b): in the presence of 10 μM 11b
Source text: The MICs of a variety of antibiotics in the presence and absence of 11b, respectively. In addition to methicillin, BAA-44 is also resistant to a wide range of antibiotics, such as tetracycline, erythromycin, and daptomycin. As shown in Table 2-3, compound 11b potentiates the activity of all β-lactams tested, such as oxacillin, amox/clav, cefazolin, and meropenem. Without being bound by any theory, it is believed compound 11b and other compounds of the invention are selective potentiators of β-lactams.
(§2) The minimal inhibitory concentrations (MICS) of antimicrobial compounds and 11b were determined by the broth microdilution method detailed in the Clinical and Laboratory Standards Institute (CLSI) handbook. All antimicrobial compounds were purchased from Sigma-Aldrich. The growth media used for all MIC experiments was Mueller Hinton Broth (MHB) purchased from HIMEDIA through VWR (cat: 95039-356). The inoculum was prepared by diluting a bacterial day culture (OD600 0.15-0.4) to OD600 0.002. This dilution was further diluted two fold when added to 96 well microplates (USA Scientific CytoOne 96-well TC plate, cat: CC7682-7596) for a final inoculum concentration of OD600 0.001. All plates were incubated at 37° C. with shaking for 18 hours before results were interpreted.
The MRSA strain ATCC BAA-44 was used to determine the MIC values of various antimicrobial compounds in the presence of 10 μM 11b. The experiment was conducted similarly to the CLSI MIC determination described previously; however, MHB was supplemented with 20 μM 11b prior to set up and inoculation. The final concentration of 11b after inoculation with BAA-44 was 10 μM.

[1] = system: multi-drug resistant MRSA strain, ATCC BAA-44; experiment: Minimum re-sensitizing concentration (MRC) for cefazolin; type: cell-based, S. aureus; settings: MRSA ATCC BAA-44; re-sensitizing to cefazolin
Experimental: (§3) ATIs 11-14 represent a wide range of clogD values and their minimum re-sensitizing concentrations (MRCS) for cefazolin (i.e., a first-generation cephalosporin) and amoxicillin/clavulanic acid (i.e., Augmentin, amox/clav) was evaluated as well as their minimum inhibitory concentrations (MICs) in a multi-drug resistant MRSA strain, ATCC BAA-44. Any compounds with promising MRC and MIC were then evaluated for potential mammalian toxicity by determining their half growth inhibitory concentrations (GI50) in human cervical adenocarcinoma (HeLa) cells.
(§4) Antibiotic MIC values where S. aureus is considered susceptible were determined from the CLSI handbook. MHB was supplemented with the antimicrobial at a concentration two fold greater than the CLSI susceptible MIC value. Two-fold serial dilutions of 11b were prepared in antibiotic supplemented media in 96-well microplates. These were inoculated with MRSA diluted to OD600 0.002 and incubated at 37° C. with shaking for 18 hours before results were interpreted. The concentration of 11b in antibiotic supplemented media at which there was no observable growth was considered the minimum resensitizing concentration (MRC). For amoxicillin/clavulanic acid, the initial concentration was 8/4 μg/mL; for cefazolin, 16 μg/mL. A 50 μL portion of the antibiotic containing media was added to each well of 96-well plates, and 100 μL was added to the top row. A 1.28 μL portion of 5 mg/mL 11b was added to the top row of each plate to afford a concentration of 64 μg/mL in the top row of each plate, and 2-fold serial dilutions were performed down the columns. Once the plates were prepared, a day culture of MRSA was diluted to OD600 0.002, and 50 μL was added to each well. The final concentration of MRSA added was OD600 0.001, the final concentration of amoxicillin/clavulanic acid was 4/2 μg/mL, the final concentration of cefazolin was 8 μg/mL, and the highest concentration of 11b tested was 32 μg/mL. Plates were incubated overnight at 37° C. with shaking. The MRC value was determined as the concentration of 11b in the presence of antibiotic at which there was no observable overnight growth.

[2] = Half growth inhibitory concentration (GI50), mammalian toxicity; type: cell-based; settings: human, HeLa cells (human cervical adenocarcinoma)
Experimental: as §3
To evaluate the cytotoxicity of 11b in mammalian cells, a cell viability assay was carried out using CellTiter-Glo luminescent cell viability assay kit (Promega). Human cervical adenocarcinoma HeLa cells were seeded on white, cell-culture treated 96-well plates (Corning: 3917) with Dulbecco's modified Eagle's medium (DMEM) supplemented with 10% fetal calf serum (FCS), 1% penicillin/streptomycin, at the densities of 20,000 cells/well. The medium volume for each well was 100 μL. Cells were incubated at 37° C. in 5% CO2/95% air for 16 hours. The medium was removed from each well and replaced with 99 μL of warmed fresh medium. To each well was then added 1.0 μL of 11b in DMSO with the final concentrations of 1.56-200 μg/mL. Each concentrate was performed in two replicates. After incubation at 37° C. for another 24 hours, the plates were equilibrated to room temperature for 30 minutes. 100 μL of CellTiter-Glo reagent (Promega) was added to each well and mixed for 2 minutes on an orbital shaker. The plate was incubated at room temperature for another 10 minutes to stabilize luminescent signal. The luminescence of each sample was recorded in an Envision Multilabel Plate Reader (Perkin Elmer).

[3] = system: multi-drug resistant MRSA strain, ATCC BAA-44; experiment: Minimum re-sensitizing concentration (MRC) for amoxicillin/clavulanic acid; type: cell-based, S. aureus; settings: MRSA ATCC BAA-44; re-sensitizing to amoxicillin/clavulanic acid
Experimental: as §3, §4

[4] = system: multi-drug resistant MRSA strain, ATCC BAA-44; experiment: Minimum inhibitory concentration (MIC) of the compound alone; type: cell-based, S. aureus; settings: for antibacterial activity on its own (in words): MRSA BAA-44; for MIC: Staphylococcus aureus, MRSA ATCC BAA-44, compound alone
Experimental: as §3, §2

[5] = system: BAA-44, NRS-100, NRS-384, NR-46414 and NR-46421; experiment: MRC of 11b for amox/clav and cefazolin in a variety of MRSA and VRSA strains; type: cell-based, S. aureus; settings: all strains tested
Experimental: (§5) The minimum re-sensitizing concentrations (MRCS) of 11b to re-sensitize a variety of MRSA strains to β-lactam antibiotics, amox/clav and cefazolin was also evaluated.
as §4, with “Once the plates were prepared, a day culture of MRSA was diluted to OD600 0.002, and 50 μL was added to each well. The final concentration of MRSA added was OD600 0.001, the final concentration of amoxicillin/clavulanic acid was 4/2 μg/mL, the final concentration of cefazolin was 8 μg/mL, and the highest concentration of 11b tested was 32 μg/mL. Plates were incubated overnight at 37° C. with shaking.” left out

[6] = system: BAA-44, NRS-100, NRS-384, NR-46414 and NR-46421; experiment: MIC of 11b on its own in a variety of MRSA and VRSA strains; type: cell-based, S. aureus; settings: all strains tested
Experimental: as §5, §2

MRSA strain ATCC BAA-44 = experiment: Checkerboard MIC study of 11b and methicillin (FICI); type: cell-based, S. aureus; settings: 11b with methicillin, ≤0.5 indicates synergy
Experimental: Tetracyclic indolenine compounds were then evaluated in a series of bacterial whole-cell assays. Compound 11b potentiated the activity of methicillin in a multi-drug resistant MRSA strain, ATCC BAA-44. To assess the degree of synergy between 11b and methicillin, a checkerboard minimum inhibitory concentration (MIC) study was performed.

[7] = Saturated concentration (aqueous solubility); type: physicochemical
Experimental: (§6) The physiochemical properties of various compounds were evaluated. […] In vivo pharmacokinetic (PK) properties of 13 was evaluated.

[8] = system: MRSA strains NRS-100 and NRS-384, VRSA strain NR-46414; experiment: MRC of 13 in further MRSA/VRSA strains; type: cell-based, S. aureus; settings: community-acquired MRSA NRS-100, NRS-384 and VRSA NR-46414
Experimental: Compound 14 is zwitterionic under physiological conditions and has even lower clogD value. Further evaluations of 13 in a variety of MRSA strains, such as community-acquired MRSA strains NRS-100 and NRS-384, and vancomycin-resistant S. aureus (VRSA) strain NR-46414, also gave a similar results (MRCs=2 μg mL^−1).
Antibiotic MIC values where S. aureus is considered susceptible were determined from the CLSI handbook. MHB was supplemented with the antimicrobial at a concentration two fold greater than the CLSI susceptible MIC value. Two-fold serial dilutions of 11b were prepared in antibiotic supplemented media in 96-well microplates. These were inoculated with MRSA diluted to OD600 0.002 and incubated at 37° C. with shaking for 18 hours before results were interpreted. The concentration of 11b in antibiotic supplemented media at which there was no observable growth was considered the minimum resensitizing concentration (MRC). For amoxicillin/clavulanic acid, the initial concentration was 8/4 μg/mL; for cefazolin, 16 μg/mL. A 50 μL portion of the antibiotic containing media was added to each well of 96-well plates, and 100 μL was added to the top row. […] The MRC value was determined as the concentration of 11b in the presence of antibiotic at which there was no observable overnight growth.

[9] = In vivo pharmacokinetics and tolerability, single IP dose; settings: mouse
Experimental: as §6, §1

Structure (SMILES)	Fold of potentiation (MRSA BAA-44)	MIC (MRSA BAA-44) [mg/L]	MIC (+11b) (MRSA BAA-44) [mg/L]	MRC Cef [1] [µg/mL]	MRC Amox/clav [3] [µg/mL]	MIC [4] [mg/L]	further results
OC[C@@H](O)[C@@H](O)[C@H](O)[C@H](O)CO [mannitol]	–	–	–	–	–	–	Papp (in vitro): 15.1 nm/s
COc1cccc(OC)c1C(=O)N[C@@H]1C(=O)N2[C@@H]1SC(C)(C)[C@@H]2C(=O)O [Methicillin]	16	128	8	–	–	–	–
C=C1CNC[C@@H]2Nc3c(F)cc(Br)cc3[C@]12CCNS(=O)(=O)c1ccc(Cl)cc1 [NH-ATI 12, N-(2-((4aS,9aR)-6-bromo-8-fluoro-4-methylene-1,2,3,4,9,9a-hexahydro-4aH-pyrido[3,4-b]indol-4a-yl)ethyl)-4-chlorobenzenesulfonamide]	–	–	–	4	4	8 (≈ 16 µM)	GI50 at 24 h [2]: 6.7 mg/L (≈ 13.4 µM); antibacterial activity on its own (in words) [4]: potent antibacterial activity on its own
C[C@@H](O)[C@H]1C(=O)N2C(C(=O)O)=C(S[C@@H]3CN[C@H](C(=O)N(C)C)C3)[C@H](C)[C@H]12 [Meropenem]	4	4	1	–	–	–	–
COCCc1ccc(OCC(O)CNC(C)C)cc1 (stereo not drawn) [metoprolol]	–	–	–	–	–	–	Papp (in vitro): 535 nm/s
Cc1onc(-c2ccccc2)c1C(=O)N[C@@H]1C(=O)N2[C@@H]1SC(C)(C)[C@@H]2C(=O)O [Oxacillin]	32	32	1	–	–	–	–
C=C1CN(C(=O)C(F)(F)F)C[C@@H]2Nc3c(F)cc(Br)cc3[C@]12CCNS(=O)(=O)c1ccc(Cl)cc1 [TFA-ATI 11c, N-(2-((4aS,9aR)-6-bromo-8-fluoro-4-methylene-2-(2,2,2-trifluoroacetyl)-1,2,3,4,9,9a-hexahydro-4aH-pyrido[3,4-b]indol-4a-yl)ethyl)-4-chlorobenzenesulfonamide]	–	–	–	4	4	> 32	GI50 at 24 h [2]: 19 mg/L; antibacterial activity on its own (in words) [4]: without observable antibacterial activity
C=C1CCC2C3=Nc4ccccc4C13CCN2C(=O)c1ccc(Cl)cc1 (stereo not drawn) [Compound 11b, 11-[(4-Chlorophenyl)carbonyl]-14-methylidene-8,11-diazatetracyclo[8.3.3.0^1,9.0^2.7]hexadeca-2(7),3,5,8-tetraene]	–	–	–	–	–	–	MRCs [5]: 0.25 to 2 µg/mL; MICs [6]: 32 to 64 µg/mL; Fractional Inhibitory Concentration Index (FICI) (MRSA strain ATCC BAA-44): 0.039
C=C1CN(CC(=O)O)C[C@@H]2Nc3c(F)cc(Br)cc3[C@]12CCNS(=O)(=O)c1ccc(Cl)cc1 [Gly-ATI 14, 2-((4aS,9aR)-6-bromo-4a-(2-((4-chlorophenyl)sulfonamido)ethyl)-8-fluoro-4-methylene-1,3,4,4a,9,9a-hexahydro-2H-pyrido[3,4-b]indol-2-yl)acetic acid]	–	–	–	>32	>32	> 32	–
C=C1CN(S(=O)(=O)c2ccc([N+](=O)[O-])cc2)C[C@@H]2Nc3c(F)cc(Br)cc3[C@]12CCNS(=O)(=O)c1ccc(Cl)cc1 [Ns-ATI 11a, N-(2-((4aS,9aR)-6-bromo-8-fluoro-4-methylene-2-((4-nitrophenyl)sulfonyl)-1,2,3,4,9,9a-hexahydro-4aH-pyrido[3,4-b]indol-4a-yl)ethyl)-4-chlorobenzenesulfonamide]	–	–	–	>32	>32	> 32	–
C=C1CN(C(=N)N)C[C@@H]2Nc3c(F)cc(Br)cc3[C@]12CCNS(=O)(=O)c1ccc(Cl)cc1 [Guan-ATI 13, (4aS,9aR)-6-bromo-4a-(2-((4-chlorophenyl)sulfonamido)ethyl)-8-fluoro-4-methylene-1,3,4,4a,9,9a-hexahydro-2H-pyrido[3,4-b]indole-2-carboximidamide]	–	–	–	2	2	8 (≈ 14.7 µM)	saturated concentration [7]: 587 µg/mL; saturated concentration as fold of MRC in MRSA [7]: ~300 fold; MRCs [8]: 2 µg/mL; Papp (in vitro): 21.1 nm/s; GI50 at 24 h [2]: 40 mg/L (≈ 73.7 µM); plasma levels as multiple of MRC in MRSA ([9]; in vivo, 30 min): approximately 4 ×MRC; AUC ([9]; plasma, 30 mg/kg): 18.2 µg·h/mL; Cmax ([9]; plasma, 30 mg/kg): 8 µg/mL; half-life ([9]; plasma, 30 mg/kg): 2.5 h
C=C1CN(S(C)(=O)=O)C[C@@H]2Nc3c(F)cc(Br)cc3[C@]12CCNS(=O)(=O)c1ccc(Cl)cc1 [Ms-ATI 11b, N-(2-((4aS,9aR)-6-bromo-8-fluoro-4-methylene-2-(methylsulfonyl)-1,2,3,4,9,9a-hexahydro-4aH-pyrido[3,4-b]indol-4a-yl)ethyl)-4-chlorobenzenesulfonamide]	–	–	–	>32	>32	> 32	–
Cc1nnc(SCC2=C(C(=O)O)N3C(=O)[C@@H](NC(=O)Cn4cnnn4)[C@H]3SC2)s1 [Cefazolin]	32	128	4	–	–	–	–
